Test results from patent US6737397B1, “Control of cancer growth through the interaction of [MET5]-enkephalin and the zeta receptor” (The Penn State Research Foundation, priority 1996, dated 2004).
Marks after values point to notes of the source that are not given here.

Experiments:
WiDr cells = test: Growth assay (cell counts) of WiDr human colon cancer cells; format: cell-based; conditions: 10^−6 M NTX, 48 hr
Experimental: (§1) HT-29, WiDr, and COLO 205 cell lines were obtained from the American Type Culture Collection (Rockville, Md.). HT-29 cells were grown in McCoy's 5A media (modified), WiDr cells in Minimum Essential Media, and COLO 205 cells in RPMI 1640 media; all media contained 10% fetal calf serum, 2 mM […], 1.2% sodium bicarbonate and antibiotics (11 Units/ml penicillin, 10 μg/ml streptomycin, 10 μg/ml neomycin) in a humidified atmosphere of 7% CO2/93% air at 37° C. In some examples, cultures of HT-29 cells were maintained in McCoy's 5A media without fetal calf serum.
(§2) Cells were seeded at equivalent amounts into 75 cm^2 flasks or into 9.6 cm^2 wells (6-well plates, Falcon) and were counted 24 hr later to determine plating efficiency. Drugs or sterile water were added beginning 24 hr after seeding (=0 hours) and both media and drugs were changed daily. All drugs were prepared in sterile water and dilutions represent final concentrations of the compounds. At appropriate times, cells were harvested with 0.05% trypsin/0.53 mM EDTA, centrifuged, and counted with a hemacytometer at 200×. Cell viability was determined by trypan blue staining. At least 2 aliquots/flask or well were counted and 2 flasks or wells/time point/treatment group were sampled.
(§3) To examine the ubiquity of opioid activity with respect to colon cancer, two other colon cancer cell lines were investigated: COLO 205 and WiDr.

[1] = system: HT-29 human colon cancer cells; test: HT-29 human colon tumor xenografts in nude mice treated with 0.1 mg/kg naltrexone; format: in vivo
Experimental: HT-29 human colon cancer cells, purchased from the American Type Culture Collection (Rockville, Md.), were grown in McCoy's 5A Modified Medium containing 10% fetal calf serum, L-glutamine (2 mM), penicillin (10 units/ml), and streptomycin ([…]) in an atmosphere of 7% CO2 at 37° C. Cell viability was determined by the trypan blue exclusion test. Five- to six-week-old male athymic nude mice, obtained from the National Cancer Institute (Frederick, Md.), were injected subcutaneously over the right shoulder with 1×10^6 log phase HT-29 cells in a 0.5 ml suspension of McCoy's media. The day of tumor cell inoculation was considered day 0. The mice were evaluated daily and the date that the tumor became palpable was recorded. The time of “initial” appearance of a tumor was considered to be the day when tumor volume was 5 mm^3 or larger. Individual tumors were measured with vernier calipers every 2 days. Measurements of the two largest perpendicular dimensions were recorded and tumors volume was calculated using the formula: length×(width)^2×0.5 [Osieka, R., D. P. Houchens, and A. Goldin. Chemotherapy of human colon cancer xenografts in athymic nude mice. Cancer 40:2640-2650, (1977)]. All mice were euthanized and necropsied 50 days after tumor cell inoculation. Tumor tissue for receptor binding assays and radioimmunoassays was rapidly frozen in liquid nitrogen and stored at −70° C. until assayed.
Treatment was initiated on the day of tumor cell inoculation. […] Animals were weighed-weekly and appropriate dosage adjustments made.
Latencies until tumor appearance were analyzed using one-way analysis of variance; subsequent comparisons were made with the Newman-Keuls test. The number of mice developing tumors was expressed as a ratio of the total number of mice in the group. Comparisons between groups were made with chi-square tests.
The growth of tumors was compared for each mouse beginning on the day of initial tumor appearance and every 3 days thereafter until the termination of the experiment. Tumor measurements on these days were analyzed using one-way analysis of variance and Newman-Keuls test. Body weights were compared with a two-factor analysis of variance.

COLO 205 cells = test: Growth assay (cell counts) of COLO 205 human colon cancer cells; format: cell-based; conditions: 10^−6 M NTX, 48 hr
Experimental: as §1, §2, §3

ζ-opioid receptor [2] = molecular target: T1, ζ-opioid receptor (Homo sapiens, UniProt Q9NZT2); test: Competition for binding of [3H][Met5]enkephalin (4.0 nM) in nuclear homogenates of HT-29 human colon tumors; set-up: from tissue; host or cells: HT-29 human colon tumor xenografts grown in athymic nude mice; nuclear (P1) and other subcellular fractions
T1 sequence (Q9NZT2 1-677): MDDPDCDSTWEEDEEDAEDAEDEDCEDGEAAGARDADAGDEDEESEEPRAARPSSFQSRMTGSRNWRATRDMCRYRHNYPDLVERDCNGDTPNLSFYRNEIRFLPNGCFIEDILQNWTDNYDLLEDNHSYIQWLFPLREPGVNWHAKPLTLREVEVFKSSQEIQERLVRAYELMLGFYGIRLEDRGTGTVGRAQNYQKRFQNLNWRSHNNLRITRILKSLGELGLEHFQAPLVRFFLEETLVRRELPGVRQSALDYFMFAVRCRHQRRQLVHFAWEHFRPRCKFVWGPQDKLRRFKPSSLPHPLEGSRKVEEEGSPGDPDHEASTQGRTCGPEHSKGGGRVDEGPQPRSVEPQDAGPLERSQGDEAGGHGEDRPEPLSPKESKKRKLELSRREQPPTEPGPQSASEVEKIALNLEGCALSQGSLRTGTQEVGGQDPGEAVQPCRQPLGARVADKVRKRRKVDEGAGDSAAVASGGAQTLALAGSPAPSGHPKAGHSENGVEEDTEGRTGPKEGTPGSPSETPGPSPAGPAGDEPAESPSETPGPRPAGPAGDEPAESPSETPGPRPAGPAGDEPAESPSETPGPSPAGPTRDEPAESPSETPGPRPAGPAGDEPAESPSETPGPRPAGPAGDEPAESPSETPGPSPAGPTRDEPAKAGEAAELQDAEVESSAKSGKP

neuroblastoma = conditions: cited from earlier work
HT-29 cells = test: Growth assay (cell counts) of HT-29 human colon cancer cells in culture; format: cell-based
Experimental: In some examples, cultures of HT-29 cells were maintained in McCoy's 5A media without fetal calf serum.
as §2

ζ-opioid receptor [3] = molecular target: T1, ζ-opioid receptor; test: [3H]-[Met5]-enkephalin binding of HT-29 tumor homogenates from nude mice treated with 0.1 mg/kg NTX; set-up: from tissue; host or cells: HT-29 human colon tumor xenografts grown in athymic nude mice; nuclear (P1) and other subcellular fractions
Experimental: Endogenous opioid systems regulate growth of neural tumor cells in culture. Brain Res. 490:1313-1318 (1988)].
Receptor binding data were analyzed with a Lundon (Saturation Isotherm Binding Analysis) computer program (Lundon Software, Cleveland, Ohio). This analysis utilizes non-linear least squares regression. Saturation curves and Scatchard plots were computed and plotted directly by this program.

For O=C1CC[C@@]2(O)[C@H]3Cc4ccc(O)c5c4[C@@]2(CCN3CC2CC2)[C@H]1O5 [naltrexone], the “more cells than control cultures” value (WiDr cells) was 68%, the “Number of mice with tumors 19 days after inoculation” value ([1]; 0.1 mg/kg NTX daily) was 3/10** and the “Number of mice with tumors 36 days after inoculation” value ([1]; 0.1 mg/kg NTX daily) was 6/10*. For the same molecule, the “Number of mice with tumors 50 days after inoculation” value ([1]; 0.1 mg/kg NTX daily) was 8/10, the “Latency (days) for initial tumor appearance” value ([1]; 0.1 mg/kg NTX daily s.c.) was 23.1 ± 2.9 days and the “Latency (days) for initial tumor appearance (Range)” value ([1]; 0.1 mg/kg NTX daily s.c.) was “(14-37) days”. For the same molecule, the “Latency (days) for palpable tumor” value ([1]; 0.1 mg/kg NTX daily s.c. from inoculation) was 17.0 ± 2.8 days, the “behavioral differences (e.g. hyperactivity) versus control” value ([1]; 0.1 mg/kg naltrexone) was “no behavioral differences” and the “interval between palpable tumors and initial tumor appearance versus control” value ([1]; 0.1 mg/kg naltrexone) was “similar”. For the same molecule, the “mean latency prior to palpable tumor appearance increased compared to control” value ([1]; 0.1 mg/kg naltrexone) was 2.4 fold, the “range in latency until initial tumor appearance greater than control” value ([1]; 0.1 mg/kg naltrexone) was “up to 2 fold” and the “size of tumors after initial tumor appearance versus control” value ([1]; 0.1 mg/kg naltrexone) was “did not differ”. For the same molecule, the “body weights versus control animals” value ([1]; 0.1 mg/kg naltrexone, throughout the experiment) was “comparable”, the mice with tumors ([1]; day 36, 0.1 mg/kg) was 60% and the “mice that still did not have tumors” value ([1]; day 50, 0.1 mg/kg) was 20%. The “mice with tumors of 5 mm^3 or larger” value ([1]; nineteen days after inoculation, 0.1 mg/kg) was 30%, the “number of mice with palpable tumors” value ([1]; ten days after tumor cell inoculation, 0.1 mg/kg) was 2 and the “more cells than control cultures” value (COLO 205 cells) was 76%. The IC50 (ζ-opioid receptor [2]; 4.0 nM [3H][Met5]enkephalin, read-out: IC50) was 0.0905 ± 0.0035 µM, the Ki (ζ-opioid receptor [2]; calculated from IC50 by Cheng and Prusoff, read-out: KI) was 0.0696 ± 0.0027 µM and the “duration of opioid receptor blockade” value (neuroblastoma; 0.1 mg/kg single daily injection) was 4-6 h/day. For the same molecule, the “course of tumorigenesis and survival” value (neuroblastoma; chronic receptor blockade: 10 mg/kg per day or 0.1 mg/kg 4 times daily) was “accelerated the course of tumorigenesis and shortened survival”, the “tumor effect (e.g. tumor incidence)” value (neuroblastoma; single daily injection of 0.1 mg/kg) was “antitumor effect” and the “effect on cell growth in serum-free media” value (HT-29 cells) was “significant increase in cell number”. For the same molecule, the “increase in cell number compared to control cultures” value (HT-29 cells; 10^−6 M NTX, 12 hr) was 38%, the “binding affinity (Kd) versus control levels” value (ζ-opioid receptor [3]; 0.1 mg/kg naltrexone) was “did not differ” and the “binding capacity (Bmax) decreased from control values” (ζ-opioid receptor [3]; 0.1 mg/kg naltrexone) was 6.6 fold. The “Bmax, fmol/mg protein” value (ζ-opioid receptor [3]; tumors from mice treated with 0.1 mg/kg NTX) was 52.9 ± 12.1 fmol/mg protein.
